Source: US7160992B2, “Amino-modified polysaccharides and methods of generating and using same” (Yeda Research and Development Co., Ltd., priority 2003, dated 2007)
Values after ≈ are worked out from the molar mass of the structure shown. Values joined by “and” are separate entries in the source; they are usually repeats but may differ in a detail not shown here. Identical values can stand only once. Like-named read-outs stand apart in the source and are kept apart here.

What was measured:
TAR = settings: in contrast to Tat peptide (R52) or AACs; cited from earlier work
TAR or RRE RNAs = settings: cited from earlier work
CCR5 = biological target: T1, CCR5 (Homo sapiens, UniProt P51681); settings: PHA stimulated peripheral blood lymphocytes; cited from earlier work
T1 construct: in PHA stimulated peripheral blood lymphocytes (PBL); host or cells: PHA stimulated peripheral blood lymphocytes (PBL)
T1 sequence (P51681 whole entry): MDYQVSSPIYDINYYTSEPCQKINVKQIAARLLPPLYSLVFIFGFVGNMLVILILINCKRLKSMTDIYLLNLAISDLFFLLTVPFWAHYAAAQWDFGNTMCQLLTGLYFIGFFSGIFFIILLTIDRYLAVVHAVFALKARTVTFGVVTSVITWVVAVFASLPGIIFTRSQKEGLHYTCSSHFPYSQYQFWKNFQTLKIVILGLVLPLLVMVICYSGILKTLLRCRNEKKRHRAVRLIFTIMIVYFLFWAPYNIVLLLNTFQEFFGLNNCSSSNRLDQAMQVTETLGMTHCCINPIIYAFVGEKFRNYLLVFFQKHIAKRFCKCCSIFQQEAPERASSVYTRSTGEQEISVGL

ICR (CD-1) mice = experiment: Acute intravenous toxicity of NeoR6 in mice; type: in vivo
Protocol: Injection volumes applied ranged from 4–10 ml/kg
Observation of clinical signs post-NeoR6 injection—On the day of injection, careful clinical examinations were carried out continuously during the first 90 minutes post-injection. Thereafter, animals were inspected at least once a day for 14 consecutive days. Observations included changes in the skin and fur, eyes and mucous membranes, respiratory, circulatory, autonomic and central nervous systems, somatomotor activity and behavior pattern with particular attention to occurrence of tremors, convulsions, salivation, diarrhea, lethargy, sleep and coma.
Necropsy and Gross Pathology—All test animals, including decedents were subjected to gross necropsy. At necropsy all animals were thoroughly examined for abnormality of tissues or organs. All major body cavities were opened, larger organs were sectioned and the gastro-intestinal tract was opened at intervals for examination of the mucosal surfaces. The normal appearance of major organs was confirmed for each animal and any gross pathological changes or abnormalities were described.

P. aeruginosa = experiment: Minimal inhibitory concentration, serial two-fold dilutions in TSB; type: cell-based
HIV-1IIIB wild type = experiment: Inhibition of HIV-1IIIB wild type in MT2 or cMAGI cells; type: cell-based
From the text: (§1) The cMAGI assay is based on the ability of HIV-1 TAT to transactivate the expression of an integrated β-galactosidase reporter gene driven by the HIV-LTR [Chackerian, B. et al., 1997. J Virol. 71: 3932–3939; Collins, K. B. et al., 2000. Nat. Med. 6: 475–479]. The β-galactosidase reporter has been modified to remain localized in the nucleus where it can be detected with the X-gal substrate as an intense nuclear stain within a few days of infection. The X-gal substrate used was 5-bromo-4-chloro-3-indoyl-beta-D-galactopyranoside. HIV1IIIB was propagated by subculture in MT2 as described previously [Litovchick (2001) Supra]. Aliquots of cell-free culture supernatants were used as viral inoculum. […] The cytopathic effects of the viral infection of MT2 cells were analyzed by microscopic assessment of syncytium formation. These latter data were obtained by analysis of duplicate samples by two independent observers. HIV-1 infection of cMAGI cells was determined by counting the number of HIV-1 infected cells (stained blue).

[1] = tested on: lymphocytes, PBMC and neurons; settings: cited from earlier work
[2] = tested on: U38, PM1, H9 cells and PBMC; experiment: Cellular uptake of AAC-FITC fluorescent probes, fluorescence microscopy; type: cell-based; settings: 0.5 μM, 10 minutes of incubation
Protocol: Images were obtained using a Zeiss Axiophot microscope.
Cellular uptake using AAC fluorescent probes—U38, PM1, H9 cells and PBMC(10^5) were incubated for 20 minutes at room temperature in 100 μl RPMI 1640 medium (Gibco-BRL, Life-Technologies, UK) including AAC-FITC derivatives as indicated at a final concentration of 0.5 μM. Cells were washed twice, resuspended in 100 μl medium and analyzed with a Zeiss Axiophot fluorescent microscope.

RRE IIB RNA = experiment: Fluorescence anisotropy: RhdRev binding and AAC competition for RRE IIB RNA; set-up: species or system HIV-1
S. aureus = experiment: Minimal inhibitory concentration, serial two-fold dilutions in TSB; type: cell-based
E. faecalisr = experiment: as above; type: cell-based
TAR RNA = experiment: Fluorescence anisotropy: RhdRev binding and AAC competition for TAR RNA; set-up: species or system HIV-1
B. subtilis = experiment: Minimal inhibitory concentration, serial two-fold dilutions in TSB; type: cell-based
cMAGI cells = experiment: Competition between FITC-labelled AACs and RANTES; type: cell-based; settings: 2.5 mM RANTES
Protocol: Competition between FITC labelled AACs (1 mM) and RANTES (2.5 mM, Pepro Tech Inc., New Jersey, USA) was effected in 2×10^5 cMAGI cells. Following 30 min of incubation, cells were washed with ice-cold wash buffer and analysed by flow cytometry as described above.

E. coli = experiment: Minimal inhibitory concentration, serial two-fold dilutions in TSB; type: cell-based
CD4 = biological target: T2, CD4 (Homo sapiens, UniProt P01730); settings: PHA stimulated peripheral blood lymphocytes; cited from earlier work
T2 construct: in PHA stimulated peripheral blood lymphocytes (PBL); host or cells: PHA stimulated peripheral blood lymphocytes (PBL)

S. epidermidis = experiment: Minimal inhibitory concentration, serial two-fold dilutions in TSB; type: cell-based
CXCR4 = biological target: T3, CXCR4 (Homo sapiens, UniProt P61073); experiment: Inhibition of anti-CXCR4 mAb 12G5 binding to cells, flow cytometry; type: cell-based; settings: for reduction of 12G5 mAb binding to the cells / median fluorescence intensity (MFI) of PE-12G5 in presence of AAC: 10 μM AAC; for reduction of 12G5 mAb binding to the cells: PM1 cells, 30 min at 4° C.; for median fluorescence intensity (MFI) of PE-12G5 in presence of AAC: mAb alone 451, isotype control 30
T3 construct: endogenous in cells; host or cells: PM1 cells and PBMC
T3 sequence (P61073 whole entry): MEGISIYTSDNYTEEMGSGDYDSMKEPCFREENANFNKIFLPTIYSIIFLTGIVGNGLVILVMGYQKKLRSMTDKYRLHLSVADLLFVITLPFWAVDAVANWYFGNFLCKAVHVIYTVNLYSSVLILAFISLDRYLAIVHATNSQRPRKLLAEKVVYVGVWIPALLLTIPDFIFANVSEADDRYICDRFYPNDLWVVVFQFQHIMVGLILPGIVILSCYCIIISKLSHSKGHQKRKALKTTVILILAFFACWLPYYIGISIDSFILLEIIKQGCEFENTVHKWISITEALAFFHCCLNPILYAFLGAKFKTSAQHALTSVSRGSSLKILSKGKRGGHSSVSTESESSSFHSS
Protocol: FIGS. 11a–d are graphs depicting the binding of AACs to CXCR4 in the presence of anti CXCR4 antibody (12G5). PM1 cells were incubated with PE-conjugated isotype control mAb, PE-anti CXCR4 conjugated mAb (12G5) alone, or in the presence of the indicated AACs for 30 min at 4° C. The cells were then washed twice with PBS and analyzed by flow cytometry. The MFI values are shown in parenthesis.
Interaction of AACs with CXCR4 was determined by flow cytometry (FACScan, Becton Dickinson) as described recently (Litovchick et al., 2001, supra). Briefly, 0.5×10^6 cells were washed in ice-cold PBS containing 0.1% sodium azide (wash buffer) and incubated at 4° C. with anti-CXCR4 mAb, 12G5 (PharMingen, San Diego, Calif.) conjugated to phycoerithrine (PE), in the absence or presence of different concentrations of the AACs. After 30 min of incubation, the cells were washed with ice-cold wash buffer and fixed in PBS containing 1% paraformaldehyde. Non-specific fluorescence was assessed by using isotype-matched control. For each sample 10,000 events were acquired. Data were analyzed and processed using CellQuest™ software (Becton Dickinson).

Gram-positive bacteria = experiment: Minimal inhibitory concentration, Gram-positive bacteria as a group; type: cell-based; settings: range over susceptible Gram-positive bacteria
[3] = tested on: NeoR6 resistant HIV-1 isolates; experiment: Inhibition of NeoR6 resistant HIV-1 isolates in MT2 or cMAGI cells; type: cell-based
From the text: as §1
Culture fluids were replaced […] weekly with fresh medium containing an appropriate drug concentration. […] From the final cycle of each experiment the resistant virus was propagated as described above.

HIV-1 clade C = experiment: Replication of HIV-1 clade C in MT2 cells, tetrazolium viability; type: cell-based; settings: present throughout infection or only the first two hours; NeoR6 2–20 μM, R3G 5–40 μM
Protocol: Infected cells were washed, seeded in 96-well plate (5×10^4 cells per well) and incubated for 4 days in the absence or presence of various drug concentrations, until syncytia were observed (>25% ctu). Cell viability was measured by tetrazolium-based colorimetric method. The results shown are mean ±standard deviation of triplicates. Circles denote the presence of AACs during the infection step and after the cells were washed; Squares denote the presence of AACs only during the first 2 hours prior to washing.

HIV-1 isolates = settings: Cabrera et al., 2002; cited from earlier work
[4] = HIV-1IIIB wt, mean and standard deviation of three separate experiments, read-out: EC50, Wild-type
[5] = NeoR6 resistant isolates after 25 passages, mean and standard deviation of three separate experiments, read-out: EC50, NeoR6RES

N=C(N)NCCCC(=O)NCC1OC(OC2C(NC(=O)CCCNC(=N)N)CC(NC(=O)CCCNC(=N)N)C(OC3OC(CO)C(O)C(NC(=O)CCCNC(=N)N)C3O)C2O)C(O)C(O)C1O (stereo not drawn) [GB4K, kanamycine A conjugated to four γ-guadinno butiric acid]
protection of the bulge region of TAR from RNase A cleavage (TAR): cannot protect the bulge region of TAR from RNase A cleavage
affinity to TAR or RRE RNAs (in words) (TAR or RRE RNAs): very low affinity

NC(N)=NCCC[C@H](N)C(=O)NC[C@@H]1OC(O[C@H]2[C@@H](O)[C@H](O[C@@H]3[C@@H](O)[C@H](NC(=O)[C@@H](N)CCCN=C(N)N)C[C@H](NC(=O)[C@@H](N)CCCN=C(N)N)[C@H]3O[C@H]3O[C@H](CNC(=O)[C@@H](N)CCCN=C(N)N)[C@@H](O)[C@H](O)[C@H]3NC(=O)[C@@H](N)CCCN=C(N)N)O[C@@H]2CO)[C@H](NC(=O)[C@@H](N)CCCN=C(N)N)[C@@H](O)[C@@H]1O (stereo partly drawn) [NeoR6, Neomycin hexa-arginine conjugate]
inhibition of binding of 2D7, a mAb directed to CCR5 (CCR5): neither R3G nor R4K or NeoR6 inhibit the binding
adverse effects (ICR (CD-1) mice; 50 mg/kg as 2 successive injections, interdosing interval of 3 hours): did not cause any adverse effects other than a very transient reduction in respiratory rate and spontaneous motor activity
weight gain (in words) (ICR (CD-1) mice; 14-day observation period, all mice except 2 females (10 or 30 mg/kg)): normal mode of weight gain
maximum tolerated dose (MTD) (ICR (CD-1) mice; acute IV administration): 30 to 35 mg/kg
pathological findings at necropsy (ICR (CD-1) mice; decedent and surviving animals): no pathological findings
Weight Gain (gr.) (Day 1–15) (ICR (CD-1) mice; group 2F, 1 female, 15 mg/kg single bolus): 4.3 gr.
Weight Gain (gr.) (Day 1–15) (ICR (CD-1) mice; group 3F, 1 female, 25 mg/kg single bolus): 5.3 gr.
Weight Gain (gr.) (Day 1–15) (ICR (CD-1) mice; group 4F, 2 females, 30 mg/kg single bolus, one survivor): 1.6; — gr.
clinical signs (ICR (CD-1) mice; single IV 30 and 35 mg/kg, confined to the first 10 min after dosing): respiratory and motoric irregularities
mortality (ICR (CD-1) mice; single female mouse, 30 mg/kg IV): died within the first five minutes post-injection
reaction to treatment (ICR (CD-1) mice; single intravenous administration, 10, 15 and 25 mg/kg): No obvious reaction to treatment
toxicity when given intravenously (ICR (CD-1) mice; two single doses of 25 mg/kg of body weight over the course of 2 hours): non-toxic
MIC (P. aeruginosa): 100 mg/L (≈ 64.4 µM)
EC50 (HIV-1IIIB wild type; [4]): 1900 nM
accumulation in cells [1]: accumulate in different cell types
cellular uptake of FITC-labeled AAC by PM1 cells [2]: uptaken by PM1 cells
Kd (RRE IIB RNA; competition of AACs with RhdRev (10 nM) for RRE IIB RNA (20 nM) binding, 85 mM NaCl): 23 nM and 23.3 nM
IC50 (RRE IIB RNA; competition of AACs with RhdRev for RRE IIB RNA binding): 72.7 ± 10.1 nM
MIC (S. aureus): 6.25 mg/L (≈ 4.03 µM)
MIC (mg/L) (E. faecalisr): ≧200 mg/L
Kd (TAR RNA; competition of AACs with RhdRev (10 nM) for TAR RNA (20 nM) binding, 85 mM NaCl): 5 nM
IC50 (TAR RNA; competition of AACs with RhdRev for TAR RNA binding): 19.9 ± 2.7 nM
competition with RhdRev for TAR RNA binding (in words) (TAR RNA; up to 20 μM of AAC): efficiently competed
MIC (B. subtilis): 1.56 mg/L (≈ 1.01 µM)
effect of RANTES on uptake of FITC derivative (cMAGI cells): did not affect uptake
MIC (E. coli): 100 mg/L (≈ 64.4 µM)
inhibition of binding of anti CD4 antibody (Leu 3a) (CD4): neither R3G nor R4K or NeoR6 inhibit the binding
MIC (S. epidermidis): 0.78 mg/L (≈ 0.503 µM)
reduction of 12G5 mAb binding to the cells (CXCR4): 90%
median fluorescence intensity (MFI) of PE-12G5 in presence of AAC (CXCR4): 76
MIC values, Gram-positive bacteria (Gram-positive bacteria): 0.78 to 6.25 mg/L

CNC(C)C1CCC(NC(=O)C(N)CCCNC(=N)N)C(OC2C(NC(=O)C(N)CCCNC(=N)N)CC(NC(=O)C(N)CCCNC(=N)N)C(OC3OCC(C)(O)C(NC)C3O)C2O)O1 (stereo not drawn) [R3G, tri-arginine gentamycin C1 conjugate, reference compound]
inhibition of binding of 2D7, a mAb directed to CCR5 (CCR5): neither R3G nor R4K or NeoR6 inhibit the binding
EC50 (HIV-1IIIB wild type; [4]): 4100 ± 2400 nM
EC50 [3, 5]: 21 ± 8.8 µM
times more resistant than the wild type virus ([3]; NeoR6 resistant isolates, following 25 passages): ~5
accumulation in cells [1]: accumulate in different cell types
inhibition of viral proliferation (in words) (HIV-1 clade C): could inhibit viral proliferation
inhibition of binding of anti CD4 antibody (Leu 3a) (CD4): neither R3G nor R4K or NeoR6 inhibit the binding
reduction of 12G5 mAb binding to the cells (CXCR4): 84%
median fluorescence intensity (MFI) of PE-12G5 in presence of AAC (CXCR4): 89

SDF-1α
EC50 (HIV-1IIIB wild type; [4]): 200 ± 50 nM
EC50 (HIV-1IIIB wild type; wt HIV-1 isolate, text of b338): 1 µg/mL
EC50 ([3]; NeoR6 resistant HIV-1 isolates, text of b338): 1 µg/mL
EC50 [3, 5]: 0.18 ± 0.07 µM
anti-HIV-1 EC50, fold lower than that of NeoR6 (HIV-1 isolates): ~70 fold
inhibition of PE-12G5 binding to PM1 cells by SDF-1α (CXCR4; 62.5 and 125 nM SDF-1α, control): inhibited significantly
